# Reference: patent US6808904B2, “Herbicide-tolerant protox genes produced by DNA shuffling” (priority 1994, dated 2004)
# Legend:
# [1] = biological target: T1, plant protox mutants (Arabidopsis protox-1) in SASX38 (Arabidopsis thaliana, UniProt P55826, T56K/Y426I); test: Bacterial cross-tolerance testing of resistant mutant plasmids in SASX38, Arabidopsis protox-1 mutants; assay type: cell-based; design: key to Cross tolerance, AraC-1Val / Cross tolerance, AraC-2Cys / Cross tolerance, AraC-1Thr / Cross tolerance, AraC-3Thr / Cross tolerance, AraC-2Ile / Cross tolerance, AraC-2Cys + AraC425Ser: + = 10× or more tolerant than WT; ++ = 100× or more tolerant than WT; − = no cross tolerance; conditions: mutant AraC-2Ile
# T1 construct: contains only 17 amino acids of the putative chloroplast transit peptide; expressed in transfected cells; host or cells: E. coli SASX38 (hemG mutant)
# T1 sequence (P55826 41-537 T56K/Y426I): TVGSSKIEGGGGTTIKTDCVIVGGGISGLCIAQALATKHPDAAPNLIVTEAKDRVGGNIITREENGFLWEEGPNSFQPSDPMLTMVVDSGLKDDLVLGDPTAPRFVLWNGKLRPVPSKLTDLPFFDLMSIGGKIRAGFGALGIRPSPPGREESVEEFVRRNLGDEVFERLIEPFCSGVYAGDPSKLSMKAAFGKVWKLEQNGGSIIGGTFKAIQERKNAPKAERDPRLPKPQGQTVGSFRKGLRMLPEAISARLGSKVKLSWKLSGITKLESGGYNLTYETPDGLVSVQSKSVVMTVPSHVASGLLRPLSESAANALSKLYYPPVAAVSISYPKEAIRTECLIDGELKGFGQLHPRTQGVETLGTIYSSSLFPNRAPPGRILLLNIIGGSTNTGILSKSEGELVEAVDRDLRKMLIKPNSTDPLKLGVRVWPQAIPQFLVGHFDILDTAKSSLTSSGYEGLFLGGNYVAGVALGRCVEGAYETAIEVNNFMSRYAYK
# Method: (§1) Resistant mutant plasmids, originally identified based on resistance against a single protox inhibitory herbicide, were tested against a spectrum of other protox inhibiting compounds. For this test, the SASX38 strain containing the wild-type plasmid is plated on a range of concentrations of each compound to determine the lethal concentration for each one. Resistant mutant plasmids in SASX38 are plated and scored for the ability to survive on a concentration of each compound at least 10 fold higher than the concentration that is lethal to the SASX38 strain containing the wild-type plasmid.
# [2] = biological target: T2, plant protox mutants (Arabidopsis protox-1) in SASX38 (Arabidopsis thaliana, UniProt P55826, S305L/T56K/Y426I); test: as above; assay type: cell-based; design: key to Cross tolerance, AraC-1Val / Cross tolerance, AraC-2Cys / Cross tolerance, AraC-1Thr / Cross tolerance, AraC-3Thr / Cross tolerance, AraC-2Ile / Cross tolerance, AraC-2Cys + AraC425Ser: + = 10× or more tolerant than WT; ++ = 100× or more tolerant than WT; − = no cross tolerance; conditions: mutant AraC-2Ile + AraC305Leu
# T2 construct: contains only 17 amino acids of the putative chloroplast transit peptide; expressed in transfected cells; host or cells: E. coli SASX38 (hemG mutant)
# T2 sequence (P55826 41-537 T56K/S305L/Y426I): as the sequence (P55826 41-537 T56K/Y426I) above, with S265L counted along it
# Method: as §1
# [3] = biological target: T3, plant protox mutants (Arabidopsis protox-1) in SASX38 (Arabidopsis thaliana, UniProt P55826, T56K/Y426C); test: as above; assay type: cell-based; design: key to Cross tolerance, AraC-1Val / Cross tolerance, AraC-2Cys / Cross tolerance, AraC-1Thr / Cross tolerance, AraC-3Thr / Cross tolerance, AraC-2Ile / Cross tolerance, AraC-2Cys + AraC425Ser: + = 10× or more tolerant than WT; ++ = 100× or more tolerant than WT; − = no cross tolerance; conditions: mutant AraC-2Cys vs WT plasmid in SASX38
# T3 construct: contains only 17 amino acids of the putative chloroplast transit peptide; expressed in transfected cells; host or cells: E. coli SASX38 (hemG mutant)
# T3 sequence (P55826 41-537 T56K/Y426C): as the sequence (P55826 41-537 T56K/Y426I) above, with I386C counted along it
# Method: as §1
# [4] = biological target: T4, plant protox mutants (Arabidopsis protox-1) in SASX38 (Arabidopsis thaliana, UniProt P55826, N425S/T56K/Y426L); test: as above; assay type: cell-based; design: key to Cross tolerance, AraC-1Val / Cross tolerance, AraC-2Cys / Cross tolerance, AraC-1Thr / Cross tolerance, AraC-3Thr / Cross tolerance, AraC-2Ile / Cross tolerance, AraC-2Cys + AraC425Ser: + = 10× or more tolerant than WT; ++ = 100× or more tolerant than WT; − = no cross tolerance; conditions: mutant AraC-2Leu + AraC425Ser
# T4 construct: contains only 17 amino acids of the putative chloroplast transit peptide; expressed in transfected cells; host or cells: E. coli SASX38 (hemG mutant)
# T4 sequence (P55826 41-537 T56K/N425S/Y426L): as the sequence (P55826 41-537 T56K/Y426I) above, with N385S, I386L counted along it
# Method: as §1
# [5] = biological target: T5, plant protox mutants (MzC-1Val, maize protox-1) in SASX38 (Arabidopsis thaliana, UniProt P55826, A220V/A252T/A259N/A262P/A292S/A82G/A83V/D204A/D323E/D487E/D93A/DEL80-81/E103P/E263P/E288N/E311D/E351S/E499D/F107Y/F178L/F250I/F483L/G171P/G277A/G306S/G313K/G344N/G441S/H340Y/I100T/I174L/I370V/I421V/I485L/I71T/I87L/INS101VE/K237R/K257S/K359R/K388Q/K457N/K465V/K78R/K92R/L137F/L159P/L310S/L325V/L345I/L360F/L436V/L86V/M122V/N105E/N149E/N241T/N258K/N316V/N355D/N459T/N85D/P266A/P418D/P458S/P84G/Q240E/Q272K/R284A/R293S/S186P/S291T/S305T/S312D/S330A/S352D/S369T/S430A/S439T/S460A/S491A/S492A/S495R/S496G/T141N/T160A/T318E/T379K/T397S/T461V/T488A/T494D/T56K/V126A/V334I/V337I/V95P); test: Bacterial cross-tolerance testing of resistant mutant plasmids in SASX38, maize protox-1 mutant; assay type: cell-based; design: key: + = 10× or more tolerant than WT; ++ = 100× or more tolerant than WT; − = no cross tolerance; conditions: mutant MzC-1Val vs WT plasmid in SASX38
# T5 construct: expressed in transfected cells; host or cells: E. coli SASX38 (hemG mutant)
# T5 sequence (P55826 other isoform, or with tags, fused parts or gaps with the stated changes): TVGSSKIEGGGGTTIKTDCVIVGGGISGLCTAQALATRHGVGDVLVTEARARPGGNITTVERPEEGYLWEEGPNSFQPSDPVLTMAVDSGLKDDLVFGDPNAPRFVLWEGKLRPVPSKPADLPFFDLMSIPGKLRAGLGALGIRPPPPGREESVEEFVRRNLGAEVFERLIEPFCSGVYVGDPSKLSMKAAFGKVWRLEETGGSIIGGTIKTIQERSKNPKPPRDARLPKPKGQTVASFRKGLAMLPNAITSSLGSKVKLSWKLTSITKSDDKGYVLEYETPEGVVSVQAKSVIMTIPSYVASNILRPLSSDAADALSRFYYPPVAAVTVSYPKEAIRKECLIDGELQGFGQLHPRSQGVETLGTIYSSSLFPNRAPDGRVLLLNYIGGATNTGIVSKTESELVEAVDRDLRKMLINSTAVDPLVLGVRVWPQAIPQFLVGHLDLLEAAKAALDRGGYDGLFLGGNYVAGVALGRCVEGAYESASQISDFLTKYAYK
# Method: as §1
# [6] = system: Arabidopsis line expressing AraC-2Ile+AraC305Leu; test: Cross tolerance in a seed germination assay, homozygous Arabidopsis line with AraC-2Ile+AraC305Leu; assay type: in vivo, Arabidopsis thaliana; conditions: AraC-2Ile+AraC305Leu line vs wt
# Method: Using the procedure described above, an Arabidopsis protox-1 cDNA containing a TAC to ATG (Tyrosine to Methionine) change at nucleotides 1306-1308 in the protox-1 sequence (SEQ ID NO:1) was fused to the native protox-1 promoter fragment and transformed into Arabidopsis thaliana. […] Seed from the vacuum infiltrated plants was collected and plated on a range (10.0 nM-1.0 uM) of a protox inhibitory aryluracil herbicide of formula XVII. Multiple experiments with wild type Arabidopsis have shown that a 10.0 nM concentration of this compound is sufficient to prevent normal seedling germination. Transgenic seeds expressing the AraC-2Met altered enzyme fused to the native protox-1 promoter produced normal Arabidopsis seedlings at herbicide concentrations up to 500 nM, indicating at least 50-fold higher herbicide tolerance when compared to wild-type Arabidopsis. This promoter/altered protox enzyme fusion therefore functions as an effective selectable marker for plant transformation. Several of the plants that germinated on 100.0 nM of protox-inhibiting herbicide were transplanted to soil, grown 2-3 weeks, and tested in a spray assay with various concentrations of the protox-inhibiting herbicide. When compared to empty vector control transformants, the AraPT1Pro/AraC-2Met transgenics were >10-fold more tolerant to the herbicide spray.
# Using the procedure described above, an Arabidopsis protox-1 cDNA containing both a TAC to ATC (tyrosine to isoleucine) change at nucleotides 1306-1308 and a TCA to TTA (serine to leucine) change at nucleotides 945-947 in the protox-1 sequence (SEQ ID NO:1) was fused to the native protox-1 promoter fragment and transformed into Arabidopsis thaliana.
SMILES,"Cross tolerance, AraC-2Ile [1]","Cross tolerance, AraC-2Ile + AraC305Leu [2]","Cross tolerance, AraC-2Cys [3]","Cross tolerance, AraC-2Leu + AraC425Ser [4]","Cross tolerance, MzC-1Val [5]",Tolerance [6]
CCCCCOC(=O)COc1cc(N2C(=O)C3=C(CCCC3)C2=O)c(F)cc1Cl [XIV],++ (++ = 100× or more tolerant than WT),++ (++ = 100× or more tolerant than WT),−,++ (++ = 100× or more tolerant than WT),+ (+ = 10× or more tolerant than WT),+ (+ ≧ 10× more tolerant than wt)
CC(C)OC(=O)c1cc(-n2c(=O)cc(C(F)(F)F)n(C)c2=O)ccc1Cl [XI],++ (++ = 100× or more tolerant than WT),++ (++ = 100× or more tolerant than WT),+ (+ = 10× or more tolerant than WT),++ (++ = 100× or more tolerant than WT),+ (+ = 10× or more tolerant than WT),++ (++ ≧ 100× more tolerant than wt)
COC(=O)CSc1cc(N=c2sc(=O)n3n2CCCC3)c(F)cc1Cl [VIIa],++ (++ = 100× or more tolerant than WT),++ (++ = 100× or more tolerant than WT),+ (+ = 10× or more tolerant than WT),++ (++ = 100× or more tolerant than WT),+ (+ = 10× or more tolerant than WT),++ (++ ≧ 100× more tolerant than wt)
CCOC(=O)COC(=O)c1cc(Oc2ccc(C(F)(F)F)cc2Cl)ccc1[N+](=O)[O-] [IV],−,+ (+ = 10× or more tolerant than WT),−,+ (+ = 10× or more tolerant than WT),−,± (± ≦ 10× more tolerant than wt)
